Reference: paper PMC12645583 (British journal of haematology, 2025)

What was measured:
[1] = molecular target: IRAK1 (Homo sapiens, UniProt P51617); assay: KINOMEscan kinase profiling, % inhibition at […]; assay type: binding
[2] = molecular target: HCK (Homo sapiens, UniProt P08631); assay: SelectScreen Z-Lyte enzymatic kinase assay at ATP Km app; assay type: biochemical
[3] = molecular target: BTK (Homo sapiens, UniProt Q06187); assay: as above; assay type: biochemical
Chain of BTK (Q06187 2-659): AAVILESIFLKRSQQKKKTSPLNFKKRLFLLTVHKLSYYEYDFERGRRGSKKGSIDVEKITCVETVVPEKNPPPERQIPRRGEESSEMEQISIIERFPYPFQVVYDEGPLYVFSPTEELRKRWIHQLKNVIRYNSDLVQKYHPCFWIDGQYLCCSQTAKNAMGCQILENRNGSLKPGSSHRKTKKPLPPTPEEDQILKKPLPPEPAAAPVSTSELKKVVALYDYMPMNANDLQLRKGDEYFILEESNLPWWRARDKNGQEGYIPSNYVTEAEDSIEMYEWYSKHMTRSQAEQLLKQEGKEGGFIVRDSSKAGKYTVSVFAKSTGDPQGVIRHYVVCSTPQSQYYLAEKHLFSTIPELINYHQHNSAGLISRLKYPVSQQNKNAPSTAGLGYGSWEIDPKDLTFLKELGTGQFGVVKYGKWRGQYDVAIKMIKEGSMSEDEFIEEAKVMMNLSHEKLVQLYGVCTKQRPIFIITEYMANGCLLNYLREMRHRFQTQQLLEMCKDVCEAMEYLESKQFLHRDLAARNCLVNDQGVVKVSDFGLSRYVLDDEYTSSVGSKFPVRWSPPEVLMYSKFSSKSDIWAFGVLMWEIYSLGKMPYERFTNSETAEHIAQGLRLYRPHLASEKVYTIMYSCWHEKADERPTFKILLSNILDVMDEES

Chain of HCK (P08631 2-526): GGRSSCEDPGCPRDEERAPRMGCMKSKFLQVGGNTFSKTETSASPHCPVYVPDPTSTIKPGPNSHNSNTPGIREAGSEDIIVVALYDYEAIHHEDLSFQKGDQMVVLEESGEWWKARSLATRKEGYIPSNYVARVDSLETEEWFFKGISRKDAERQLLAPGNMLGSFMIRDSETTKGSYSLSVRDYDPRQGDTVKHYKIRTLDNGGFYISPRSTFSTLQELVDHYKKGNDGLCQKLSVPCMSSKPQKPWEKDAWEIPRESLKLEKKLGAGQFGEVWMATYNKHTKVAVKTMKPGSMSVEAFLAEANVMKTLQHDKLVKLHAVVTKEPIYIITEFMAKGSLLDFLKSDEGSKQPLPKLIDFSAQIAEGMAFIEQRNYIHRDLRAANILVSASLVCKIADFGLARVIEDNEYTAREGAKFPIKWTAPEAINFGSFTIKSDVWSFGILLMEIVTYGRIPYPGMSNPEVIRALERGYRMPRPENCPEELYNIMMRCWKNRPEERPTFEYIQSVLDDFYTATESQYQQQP
Chain of IRAK1 (P51617 whole entry): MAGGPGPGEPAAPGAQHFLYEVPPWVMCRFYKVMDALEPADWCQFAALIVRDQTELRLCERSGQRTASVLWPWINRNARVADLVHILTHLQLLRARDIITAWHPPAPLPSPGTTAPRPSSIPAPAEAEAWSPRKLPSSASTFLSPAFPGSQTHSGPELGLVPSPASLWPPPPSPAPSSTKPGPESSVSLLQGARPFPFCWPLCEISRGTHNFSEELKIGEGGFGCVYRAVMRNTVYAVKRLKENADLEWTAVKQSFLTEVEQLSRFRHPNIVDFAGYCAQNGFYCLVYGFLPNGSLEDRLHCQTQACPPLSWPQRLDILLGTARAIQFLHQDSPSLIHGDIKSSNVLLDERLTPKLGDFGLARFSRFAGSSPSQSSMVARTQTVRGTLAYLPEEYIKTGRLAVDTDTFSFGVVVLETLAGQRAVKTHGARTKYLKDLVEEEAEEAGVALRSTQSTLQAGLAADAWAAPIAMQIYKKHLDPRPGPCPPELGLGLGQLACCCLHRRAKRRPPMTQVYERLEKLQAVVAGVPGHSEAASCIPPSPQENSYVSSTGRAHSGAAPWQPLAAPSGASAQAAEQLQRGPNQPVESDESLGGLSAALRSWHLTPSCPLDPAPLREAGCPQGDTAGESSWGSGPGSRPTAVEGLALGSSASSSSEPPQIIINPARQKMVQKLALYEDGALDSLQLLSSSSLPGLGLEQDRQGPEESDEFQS

C1=C/COCc2cc(ccc2OCCN2CCCC2)Nc2nccc(n2)-c2cccc(c2)COC/1 [pacritinib]
% [1]: 99.5%
IC50 [2]: 528 nM
IC50 [3]: 367 nM
